Among the data in patent US6511961B1, “Cyclic peptides and medicinal use thereof” (Toray Industries, Inc., priority 1997, dated 2003) are ring closure, yield after HPLC values, retold here.

For the data set the following is noted: disulfide bond, 20-membered ring, AgOTf/anisole/TFA, then DMSO/HCl, 50% DMSO-1N HCl, 2 steps.

Where two headings read alike, the source gives them in different places.

Where the note is “from Ac-Cys(Acm)-Ile-Asp-His-Leu-Cys(Acm)-OH”, `CC[C@H](C)[C@@H]1NC(=O)[C@@H](NC(C)=O)CSSC[C@@H](C(=O)O)NC(=O)[C@H](CC(C)C)NC(=O)[C@H](Cc2c[nH]cn2)NC(=O)[C@H](CC(=O)O)NC1=O` [AcC*IDHLC*] had a ring closure, yield after HPLC of 68%.

`CC(C)C[C@@H]1NC(=O)[C@H](Cc2c[nH]cn2)NC(=O)[C@H](CC(=O)O)NC(=O)[C@H](C)NC(=O)[C@@H](N)CSSC[C@@H](C(=O)O)NC1=O` [C*ADHLC*] yielded a ring closure, yield after HPLC (from H-Cys(Acm)-Ala-Asp-His-Leu-Cys(Acm)-OH) of 59%.

`CC(C)C[C@@H]1NC(=O)[C@H](Cc2c[nH]cn2)NC(=O)[C@H](CC(=O)O)NC(=O)[C@H](C2CCCCC2)NC(=O)[C@@H](N)CSSC[C@@H](C(=O)O)NC1=O` [C*ChgDHLC*]: the ring closure, yield after HPLC (from H-Cys(Acm)-Chg-Asp-His-Leu-Cys(Acm)-OH) was 68%.

Compound `CC(C)C[C@@H]1NC(=O)[C@H](Cc2c[nH]cn2)NC(=O)[C@H](CCS(C)(=O)=O)NC(=O)[C@H](C2CCCCC2)NC(=O)[C@@H](N)CSSC[C@@H](C(=O)O)NC1=O` [C*ChgMet(O2)HLC*] showed a ring closure, yield after HPLC (from H-Cys(Acm)-Chg-Met(O2)-His-Leu-Cys(Acm)-OH) of 41%.

`CC[C@H](C)[C@@H]1NC(=O)[C@H](c2ccccc2)NC(=O)[C@H](CCS(C)(=O)=O)NC(=O)[C@H](C2CCCCC2)NC(=O)[C@@H](N)CSSC[C@@H](C(=O)O)NC1=O` [C*ChgMet(O2)PhgIC*]: the ring closure, yield after HPLC (from H-Cys(Acm)-Chg-Met(O2)-Phg-Ile-Cys(Acm)-OH) was found to be 3%.

Take `CC(C)C[C@@H]1NC(=O)[C@H](c2ccccc2)NC(=O)[C@H](CCS(C)(=O)=O)NC(=O)[C@H](C2CCCCC2)NC(=O)[C@@H](N)CSSC[C@@H](C(=O)O)NC1=O` [C*ChgMet(O2)PhgLC*]: the ring closure, yield after HPLC (from H-Cys(Acm)-Chg-Met(O2)-Phg-Leu-Cys(Acm)-OH) amounted to 4%.

In turn, `CC(C)C[C@@H]1NC(=O)[C@H](c2ccccc2)NC(=O)[C@H](CCS(C)(=O)=O)NC(=O)[C@H](C2CCCCC2)NC(=O)[C@@H](N)CSSC[C@H](C(=O)O)NC1=O` [C*ChgMet(O2)PhgLdC*] gave a ring closure, yield after HPLC (from H-Cys(Acm)-Chg-Met(O2)-Phg-Leu-dCys(Acm)-OH) of 42%.

In turn, `CC(C)C[C@@H]1NC(=O)[C@@H](Cc2ccccc2)NC(=O)[C@H](CCS(C)(=O)=O)NC(=O)[C@H](C2CCCCC2)NC(=O)[C@@H](N)CSSC[C@@H](C(=O)O)NC1=O` [C*ChgMet(O2)dFLC*] yielded a ring closure, yield after HPLC (from H-Cys(Acm)-Chg-Met(O2)-dPhe-Leu-Cys(Acm)-OH) of 26%.

As to `CC(C)C[C@@H]1NC(=O)[C@@H](Cc2c[nH]cn2)NC(=O)[C@H](CCS(C)(=O)=O)NC(=O)[C@H](C2CCCCC2)NC(=O)[C@@H](N)CSSC[C@@H](C(=O)O)NC1=O` [C*ChgMet(O2)dHLC*], the ring closure, yield after HPLC (from H-Cys(Acm)-Chg-Met(O2)-dHis-Leu-Cys(Acm)-OH) came out at 45%.

In turn, `CC(C)C[C@@H]1NC(=O)[C@@H](c2ccccc2)NC(=O)[C@H](CCS(C)(=O)=O)NC(=O)[C@H](C2CCCCC2)NC(=O)[C@@H](N)CSSC[C@@H](C(=O)O)NC1=O` [C*ChgMet(O2)dPhgLC*] yielded a ring closure, yield after HPLC (from H-Cys(Acm)-Chg-Met(O2)-dPhg-Leu-Cys(Acm)-OH) of 8%.

The compound `CC(C)C[C@@H]1NC(=O)[C@@H](c2ccccc2)NC(=O)[C@H](CCS(C)(=O)=O)NC(=O)[C@H](C2CCCCC2)NC(=O)[C@@H](N)CSSC[C@H](C(=O)O)NC1=O` [C*ChgMet(O2)dPhgLdC*] returned a ring closure, yield after HPLC (from H-Cys(Acm)-Chg-Met(O2)-dPhg-Leu-dCys(Acm)-OH) of 40%.

In turn, `CC(C)C[C@@H]1NC(=O)[C@@H](Cc2ccc(O)cc2)NC(=O)[C@H](CCS(C)(=O)=O)NC(=O)[C@H](C2CCCCC2)NC(=O)[C@@H](N)CSSC[C@@H](C(=O)O)NC1=O` [C*ChgMet(O2)dYLC*] gave a ring closure, yield after HPLC (from H-Cys(Acm)-Chg-Met(O2)-dTyr-Leu-Cys(Acm)-OH) of 37%.

In turn, `CC[C@H](C)[C@@H]1NC(=O)[C@@H](N)CSSC[C@@H](C(=O)O)NC(=O)[C@H](CC(C)C)NC(=O)[C@H](Cc2c[nH]cn2)NC(=O)[C@H](CC(=O)OC)NC1=O` [C*ID(OMe)HLC*] showed a ring closure, yield after HPLC (from H-Cys(Acm)-Ile-Asp(OMe)-His-Leu-Cys(Acm)-OH) of 34%.

Compound `CC[C@H](C)[C@@H]1NC(=O)[C@@H](N)CSSC[C@@H](C(=O)OC)NC(=O)[C@H](CC(C)C)NC(=O)[C@H](Cc2c[nH]cn2)NC(=O)[C@H](CC(=O)OC)NC1=O` [C*ID(OMe)HLC—OMe*] had a ring closure, yield after HPLC (from H-Cys(Acm)-Ile-Asp(OMe)-His-Leu-Cys(Acm)-OMe) of 34%.

As to `CC[C@H](C)[C@@H]1NC(=O)[C@@H](N)CSSC[C@@H](C(=O)O)NC(=O)[C@H](CC(C)C)NC(=O)[C@H](C)NC(=O)[C@H](CC(=O)O)NC1=O` [C*IDALC*], under “from H-Cys(Acm)-Ile-Asp-Ala-Leu-Cys(Acm)-OH”, the ring closure, yield after HPLC amounted to 52%.
